SMILES strings stand for the structures.

The values below come from patent US20100196355A1, “Immunophilin Ligands and Methods for Modulating Immunophilin and Calcium Channel Activity” (Wyeth, priority 2007, published 2010).

The test system of assay [1] is FKBP52, FKBP25 and FKBP12. In words: Affinity chromatography on Compound 2 matrix (SDS-PAGE). Particulars: protein retained on compound beads vs blank beads. Format: binding, human.
The next assay deals with His6-tagged FKBP52. In words: [3H]-FK506 binding on Ni-chelated FLASH plate. On the set-up: species or system human. Particulars: for binding selectivity for FKBP52 versus FKBP12, higher than that of rapamycin: relative to rapamycin. As to the method: Reactions were carried out in triplicate at 25° C. for 30 min. Kd were calculated using methods described by Carreras (Anal. Biochem. 298, 57-61 (2001)).

Consider `CO[C@H]1C[C@@H]2CC[C@@H](C)[C@@](O)(O2)C(=O)C(=O)N2CCCCC2C(=O)O[C@H]([C@H](C)C[C@@H]2CC[C@@H](O)[C@H](OC)C2)CC(=O)[C@H](C)/C=C(\C)[C@@H](O)[C@@H](OC)C(=O)[C@H](C)C[C@H](C)C2CC[C@H](/C=C/1C)ON2c1ccccc1` (stereo partly shown) [Rapamycin analogue II, 9,27-dihydroxy-3-{2-[4-hydroxy-3-methoxycyclohexyl]-1-methylethyl}-10,21-dimethoxy-6,8,12,14,20,26-hexamethyl-37-phenyl-4,9,10,12,13,14,15,16,17,18,21,22,23,24,25,26,27,32,33,34,34a-henicosahydro-3H-23,27-epoxy-18,15-(epoxyimino)pyrido[2,1-c][1,4]oxazacyclohentriacontine-1,5,11,28,29(6H, 31H)-pentone], for which the “binding to FKBP52, FKBP25 and FKBP12” value in assay [1] is listed as “binds”. Further, in the assay with His6-tagged FKBP52, the “Kd(FKBP12)/Kd(FKBP52)” value was determined as 229 and the “binding selectivity for FKBP52 versus FKBP12, higher than that of rapamycin” value came to 687 fold. In addition, the “binding selectivity for FKBP52 versus FKBP12, higher than that of rapamycin” value in the assay with His6-tagged FKBP52 (listed as rapamycin analogue II) is “at least 600 fold”.
